According to ChEMBL document CHEMBL1201862, “PubChem BioAssay data set” (2004):
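Interpolation was linear, between the two tested concentrations surrounding the appropriate level; five concentrations were tested over 48 hours in 96-well plates. GI50 marks 50% less growth.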 Activity calls are given as the source filed them. Rule as the data show it: active = GI50 up to about 1.1 µM and inactive = higher.

Columns and labels:
Experiment in all cases: DTP human tumour cell line panel, 48 h
BT-549 = test system: BT-549
SK-MEL-28 = test system: SK-MEL-28
CCRF-CEM = test system: CCRF-CEM
NCI-H23 = test system: NCI-H23
A498 = test system: A498
SF-539 = test system: SF-539
OVCAR-3 = test system: OVCAR-3
UACC-257 = test system: UACC-257
HT-29 = test system: HT-29
M14 = test system: M14
RXF 393 = test system: RXF 393
LOX IMVI = test system: LOX IMVI
U-251 = test system: U-251
RPMI-8226 = test system: RPMI-8226
SF-295 = test system: SF-295
UACC-62 = test system: UACC-62
SW-620 = test system: SW-620
ACHN = test system: ACHN
TK-10 = test system: TK-10
Malme-3M = test system: Malme-3M

Row | Compound | GI50 (BT-549) | GI50 (SK-MEL-28) | GI50 (CCRF-CEM) | GI50 (NCI-H23) | GI50 (A498) | GI50 (SF-539) | GI50 (OVCAR-3) | GI50 (UACC-257) | GI50 (HT-29) | GI50 (M14) | GI50 (RXF 393) | GI50 (LOX IMVI) | GI50 (U-251) | GI50 (RPMI-8226) | GI50 (SF-295) | GI50 (UACC-62) | GI50 (SW-620) | GI50 (ACHN) | GI50 (TK-10) | GI50 (Malme-3M)
1 | CN(C)c1nc(N)nc(CS)n1 | > 100 µM (inactive) | > 100 µM (inactive) | 25.5 µM (inactive) | > 100 µM (inactive) | > 100 µM (inactive) | > 100 µM (inactive) | > 100 µM (inactive) | > 100 µM (inactive) | > 100 µM (inactive) | > 100 µM (inactive) | > 100 µM (inactive) | 42.3 µM (inactive) | 89.5 µM (inactive) | 96.2 µM (inactive) | 52.4 µM (inactive) | 61.4 µM (inactive) | > 100 µM (inactive) | > 100 µM (inactive) | > 100 µM (inactive) | 
2 | BrCC[N+]12CCCN1CCC2 | 14.4 µM (inactive) | 10.7 µM (inactive) | 1.59 µM (inactive) | 18.5 µM (inactive) | 45.9 µM (inactive) | 15.2 µM (inactive) | 13.9 µM (inactive) | 18.7 µM (inactive) | 10.8 µM (inactive) | 11 µM (inactive) | 14 µM (inactive) | 11.5 µM (inactive) | 16.5 µM (inactive) | 1.53 µM (inactive) | > 72.9 µM (inactive) | 8.83 µM (inactive) | 2.28 µM (inactive) | 7.26 µM (inactive) | 14.5 µM (inactive) | 2.32 µM (inactive)
3 | CCCCOC(=O)NC(Nc1ccc(S(N)(=O)=O)cc1)(C(F)(F)F)C(F)(F)F | > 100 µM (inactive) | > 100 µM (inactive) | > 100 µM (inactive) | > 100 µM (inactive) | > 100 µM (inactive) | > 100 µM (inactive) | > 100 µM (inactive) | > 100 µM (inactive) | > 100 µM (inactive) | > 100 µM (inactive) | > 100 µM (inactive) | > 100 µM (inactive) | > 100 µM (inactive) | > 100 µM (inactive) |  | > 100 µM (inactive) |  | > 100 µM (inactive) | > 100 µM (inactive) | > 100 µM (inactive)
4 | CC(C)(C)c1cc(C(=O)/C=C/c2ccc(C(=O)O)cc2)cc(C(C)(C)C)c1 | 2.21 µM (inactive) | 2.38 µM (inactive) | 2.91 µM (inactive) |  | 1.92 µM (inactive) | 1.36 µM (inactive) | 2.35 µM (inactive) | 10.1 µM (inactive) | 3.05 µM (inactive) | 1.5 µM (inactive) | 1.5 µM (inactive) | 3.2 µM (inactive) | 3.13 µM (inactive) | 1.16 µM (inactive) | 2.58 µM (inactive) | 1.77 µM (inactive) | 3.42 µM (inactive) | 4 µM (inactive) | 3.37 µM (inactive) | 1.42 µM (inactive)
5 | O=CC1C(Cl)=Nc2nc3ccccc3n2C1c1ccc([N+](=O)[O-])cc1 (stereo not drawn) | < 0.01 µM (active) | 2.51 µM (inactive) | 3.11 µM (inactive) | 7.96 µM (inactive) | 24.7 µM (inactive) | 20.2 µM (inactive) | 3.85 µM (inactive) | 13.6 µM (inactive) |  | 7.93 µM (inactive) | 2.93 µM (inactive) | 2.18 µM (inactive) | 5.52 µM (inactive) | 3.77 µM (inactive) | 23.2 µM (inactive) | 16.3 µM (inactive) | 4.8 µM (inactive) | 2.43 µM (inactive) | 4.54 µM (inactive) | 8.13 µM (inactive)
6 | COc1ccc2cc(/C=N\NC(=O)Nc3cccc4ccccc34)ccc2c1 | 49.4 µM (inactive) | 33 µM (inactive) | 21.3 µM (inactive) | 24.3 µM (inactive) | 17.5 µM (inactive) | 30.5 µM (inactive) |  | 32.4 µM (inactive) | 39.2 µM (inactive) | 33.4 µM (inactive) | 38.5 µM (inactive) | 33.9 µM (inactive) | 16.4 µM (inactive) |  |  |  | 74 µM (inactive) | 23.9 µM (inactive) | 22 µM (inactive) | 97.7 µM (inactive)
7 | OC1CSCCSCCCSCCSC1 | > 100 µM (inactive) | > 100 µM (inactive) |  | > 100 µM (inactive) | > 100 µM (inactive) | > 100 µM (inactive) | > 100 µM (inactive) | > 100 µM (inactive) | > 100 µM (inactive) | > 100 µM (inactive) | > 100 µM (inactive) | > 100 µM (inactive) | > 100 µM (inactive) | > 100 µM (inactive) | > 100 µM (inactive) | > 100 µM (inactive) | > 100 µM (inactive) | > 100 µM (inactive) | > 100 µM (inactive) | 
8 | COc1ccc2[nH]cc(C=C3C(=O)NC(=S)NC3=O)c2c1 | 53 µM (inactive) | > 100 µM (inactive) | 71.8 µM (inactive) | 31.2 µM (inactive) | > 100 µM (inactive) | > 100 µM (inactive) | > 100 µM (inactive) | > 100 µM (inactive) | > 100 µM (inactive) | > 100 µM (inactive) | 30.3 µM (inactive) | > 100 µM (inactive) | 24.2 µM (inactive) |  | 94.8 µM (inactive) | > 100 µM (inactive) | > 100 µM (inactive) | > 100 µM (inactive) | 38.9 µM (inactive) | > 100 µM (inactive)
9 | CCCCN(CC)c1nc(C)nc2c1c(C)c(C)n2-c1c(C)cc(C)cc1C [ANTALARMIN] | 19.7 µM (inactive) | 15.8 µM (inactive) | 11.3 µM (inactive) | 14.5 µM (inactive) | 16.9 µM (inactive) | 2.69 µM (inactive) | 13.3 µM (inactive) | 13.3 µM (inactive) | 10.5 µM (inactive) | 17.9 µM (inactive) | 6.93 µM (inactive) | 15.6 µM (inactive) | 11.7 µM (inactive) | 7.87 µM (inactive) | 14.3 µM (inactive) |  | 15.7 µM (inactive) | 14.9 µM (inactive) | 17.4 µM (inactive) | 15.9 µM (inactive)
10 | Cc1[nH]nc(-c2ccon2)c1N=O | 18.6 µM (inactive) | 20.2 µM (inactive) |  | 19.3 µM (inactive) | > 100 µM (inactive) | 17.9 µM (inactive) | 18.4 µM (inactive) | 17.4 µM (inactive) | 18.2 µM (inactive) | 20.8 µM (inactive) | 34.3 µM (inactive) |  | 17.9 µM (inactive) | 3.78 µM (inactive) | 18.7 µM (inactive) | 17.9 µM (inactive) | 21.2 µM (inactive) | 15 µM (inactive) | 18.7 µM (inactive) | 20.7 µM (inactive)
11 | Cc1ccc(/N=N/c2c(O)c(C(=O)Nc3ccccc3)cc3ccccc23)c([N+](=O)[O-])c1 | > 100 µM (inactive) | > 100 µM (inactive) | > 100 µM (inactive) | > 100 µM (inactive) | > 100 µM (inactive) |  | > 100 µM (inactive) | > 100 µM (inactive) | > 100 µM (inactive) | > 100 µM (inactive) | > 100 µM (inactive) | > 100 µM (inactive) | > 100 µM (inactive) | > 100 µM (inactive) | 70.8 µM (inactive) | > 100 µM (inactive) | > 100 µM (inactive) | > 100 µM (inactive) | > 100 µM (inactive) | > 100 µM (inactive)
12 | COc1ccc(/C=N/n2cnc3[nH]c(C)c(Cc4ccccc4)c3c2=N)cc1 | 75 µM (inactive) | > 100 µM (inactive) | 54.3 µM (inactive) | 53.1 µM (inactive) | 67.8 µM (inactive) |  | > 100 µM (inactive) | > 100 µM (inactive) | > 100 µM (inactive) | > 100 µM (inactive) | 19.2 µM (inactive) |  | 86.1 µM (inactive) | 34.8 µM (inactive) | 53.3 µM (inactive) | > 100 µM (inactive) | 57.1 µM (inactive) | 97.1 µM (inactive) | > 100 µM (inactive) | > 100 µM (inactive)
13 | c1ccc(C(NCC2CCO2)(c2ccccc2)c2ccccc2)cc1 (stereo not drawn) | 22.3 µM (inactive) | 28.6 µM (inactive) | 33.3 µM (inactive) | 16.3 µM (inactive) | 19.2 µM (inactive) | 17.8 µM (inactive) | 18.5 µM (inactive) | 19.4 µM (inactive) |  | 17.1 µM (inactive) | 18.2 µM (inactive) | 28.6 µM (inactive) | 23 µM (inactive) | 30.5 µM (inactive) | 15.1 µM (inactive) | 14.7 µM (inactive) | 19.3 µM (inactive) | 15.7 µM (inactive) | 13.8 µM (inactive) | 18.7 µM (inactive)
14 | O=P(O)(O)CN1CCN(CP(=O)(O)O)CCN(CP(=O)(O)O)CCN(CP(=O)(O)O)CC1 | 35.6 µM (inactive) |  | 44.9 µM (inactive) | 55.6 µM (inactive) | 62.5 µM (inactive) | 70.5 µM (inactive) | > 100 µM (inactive) | > 100 µM (inactive) | 69 µM (inactive) | > 100 µM (inactive) | 47.4 µM (inactive) | > 100 µM (inactive) | 45.6 µM (inactive) | 21.2 µM (inactive) | > 100 µM (inactive) | 46 µM (inactive) | 42.6 µM (inactive) | > 100 µM (inactive) | 55.5 µM (inactive) | 
15 | COCCOc1nc(-c2ccccc2)nc2ccccc12 | 35.9 µM (inactive) | 53.5 µM (inactive) |  | 61.8 µM (inactive) | 15 µM (inactive) | 48.8 µM (inactive) | 95.1 µM (inactive) | > 100 µM (inactive) | 29.6 µM (inactive) | 27.7 µM (inactive) | 11.7 µM (inactive) | 47.8 µM (inactive) | 45.8 µM (inactive) | 15.7 µM (inactive) | 43.1 µM (inactive) | 20.7 µM (inactive) | 34 µM (inactive) | 44.1 µM (inactive) | 36 µM (inactive) | 51.1 µM (inactive)
